pIC50: −log10 of the molar value. Several values for one entry are separate records, joined by “and”; a condition that tells them apart may be missing. Identical values can stand only once.
Columns and labels:
[1] = tested on: RSV-A Memphis-37b; test: RSV human challenge study: viral load in nasal wash by RT-qPCR; assay type: in vivo; settings: for AUC of viral load (RT-qPCR), fixed time period of 6.5 days, mean (SE) / AUC of viral load (RT-qPCR), fixed time period of 6.5 days, reduction in mean vs placebo: fixed 6.5 days
Protocol: Subjects were screened outside the RSV season for eligibility, including measurement of RSV-A Memphis-37b-specific neutralizing antibody titer, ≤90 days before virus challenge. Eligible subjects were admitted to the quarantine unit on day −2 or day −1 and were inoculated intranasally on day 0 with the challenge virus, RSV-A Memphis-37b (4 log10 PFU/ml, given as one 0.4-ml installation per naris), as previously described ([26]). Nasal wash sampling every 12 h for confirmation of RSV infection by qualitative integrated cycler PCR ([12], [19]) began on the morning of day 2. Treatment began 12 h (±1 h) after collection of a nasal wash sample confirming RSV infection or on the evening of day 5 if RSV infection remained unconfirmed by the morning of day 5.
The study comprised two consecutive cohorts. […] Subjects were discharged on day 12 if nasopharyngeal swab samples tested negative by RSV rapid antigen assay (QuickVue RSV test; Quidel, San Diego, CA, USA). If such tests were positive or if a subject remained symptomatic, quarantine was extended to allow further observation. All subjects were evaluated on day 28 (±3 days).
Twice-daily collection of nasal wash samples allowed measurement of viral load via RT-qPCR and quantitative culture. RT-qPCR results were reported as PFUe/ml when the standard curve included in each assay contained a known infectious amount (PFU) of RSV, as described previously ([30]). Subjects reported the occurrence and severity of symptoms three times daily using a 10-item subject symptom diary card as previously reported ([12]) (see Supplemental Methods). Throughout the quarantine period, used tissues were collected and weighed daily, and total nasal mucus weight was recorded. PK assessments were based on venous blood samples. Safety assessments included measurement of vital signs, standard 12-lead ECG recordings, spirometry, a complete physical examination, and a respiratory-directed physical examination. AEs were monitored daily, coded according to the Medical Dictionary for Regulatory Activities Version 20.0, and graded according to the National Cancer Institute Common Terminology Criteria for Adverse Events Version 4.0 (see Supplemental Methods for further details).
The primary efficacy endpoint was AUC for RSV viral load, as measured by RT-qPCR, in nasal wash samples taken twice daily from just before the first dose until discharge (day 12). Viral load data were provided as log10 PFUe/ml; AUC (log10 PFUe/ml · h) was calculated using the trapezoid rule. Secondary efficacy endpoints related to viral load were AUC of RSV viral load, as assessed by quantitative culture, and the following measures, which were each assessed using both RT-qPCR and quantitative culture: peak viral load, time to peak viral load, and time to <1 log10 (for RT-qPCR) or undetectable (for quantitative culture) viral load (considered to occur at the first confirmed undetectable assessment after which no further virus was detected). Secondary efficacy endpoints related to clinical symptoms included AUC total symptom score; peak total symptom score; time to peak total symptom score; and the total weight of nasal mucus produced. Other secondary outcomes were safety, PK, and sequence detection of viral variants (see Supplemental Methods).
The primary efficacy analysis population (the ITT-I analysis set) comprised all randomized subjects who received challenge virus and at least one dose of study drug and met the criterion for laboratory-confirmed RSV infection (presence of detectable RSV). Sensitivity analyses were based on a subset of the ITT-I population who had first detectable RSV infection prior to study drug administration (the ITT-A analysis set) and a fixed time period of 6.5 days (comprising data for all subjects for 6.5 days of evaluation after the first dose, regardless of the staggered commencement of dosing). […]

[2] = tested on: RSV-B isolates; set-up: method as in ref 16 = [16]; 16. Cockerill GS , Bedernjak A , Brookes D , Dowey R , Harland R , Johnson SM , Mathews N , Paradowski M , Peeples M , Scott C , Steadman M , Taylor G , Thom M , Thomas E , Ward SE , Watterson D , You; settings: n = 16 isolates; cited from earlier work
[3] = 76 healthy adult males; single and multiple ascending dose; cited from earlier work
[4] = 200 mg, ITT-A, fixed time period of 6.5 days
[5] = 350 mg, ITT-A, fixed time period of 6.5 days

NCc1ccc2c(c1)nc(CN1C(=O)C3(CC3)c3ccc(F)cc31)n2CCCC(F)(F)F [RV521]
AUC of viral load (RT-qPCR), mean (SE) ([1]; 200 mg, ITT-A): 236.81 (37.63) hours x log 10 PFUe/mL | AUC of viral load (RT-qPCR), reduction in mean vs placebo ([1]; 200 mg, ITT-A): 59.74% | Peak viral load (RT-qPCR), mean (SE) ([1]; 200 mg, ITT-A): 3.63 (0.26) log10 PFUe/mL | Time to <1 log10 viral load (RT-qPCR), median (Q1, Q3) ([1]; 200 mg, ITT-A): 3.0 (3.0, 6.0) days | Time to peak viral load (RT-qPCR), mean (SE) ([1]; 200 mg, ITT-A): 0.94 (0.11) days | AUC of viral load (RT-qPCR), mean (SE) [1, 4]: 234.29 (37.07) log10 PFUe/mL x hours | AUC of viral load (RT-qPCR), reduction in mean vs placebo [1, 4]: –276.21 log10 PFUe/mL x hours | AUC of viral load (RT-qPCR), mean (SE) ([1]; 200 mg, ITT-I): 224.35 log10 PFUe/ml · h and 224.35 (37.60) log10 PFUe/ml · h | AUC of viral load (RT-qPCR), reduction in mean vs that of placebo ([1]; 200 mg, ITT-I): 55.25% | AUC of viral load (RT-qPCR, unlogged), mean (SE) ([1]; 200 mg, ITT-I): 1,087,294.53 (604,070.11) PFUe/ml · h | AUC of viral load (RT-qPCR, unlogged), reduction in mean vs that of placebo ([1]; 200 mg, ITT-I): 99.10% | Peak viral load (RT-qPCR), mean (SE) ([1]; 200 mg, ITT-I): 3.47 log10 PFUe/ml and 3.47 (0.30) log10 PFUe/ml | Time to <1 log10 viral load (RT-qPCR), median (Q1, Q3) ([1]; 200 mg, ITT-I): 3.0 days and 3.0 (3.0, 6.0) (n = 17) days | Time to peak viral load (RT-qPCR), mean (SE) ([1]; 200 mg, ITT-I): 0.95 days and 0.95 (0.11) days | Mean viral load at time of peak viral load in placebo arm (day 3; RT-qPCR), mean (SE) ([1]; 200 mg, ITT-I): 1.35 (0.36) log10 PFUe/ml | AUC of viral load (RT-qPCR), fixed time period of 6.5 days, mean (SE) ([1]; 200 mg, ITT-I): 221.98 (37.05) log10 PFUe/ml · h | AUC of viral load (RT-qPCR), fixed time period of 6.5 days, reduction in mean vs placebo ([1]; 200 mg, ITT-I): 49.08% | AUC of viral load (RT-qPCR), mean (SE) ([1]; 350 mg, ITT-A): 210.61 (29.76) hours x log 10 PFUe/mL | AUC of viral load (RT-qPCR), reduction in mean vs placebo ([1]; 350 mg, ITT-A): 64.19% | Peak viral load (RT-qPCR), mean (SE) ([1]; 350 mg, ITT-A): 3.58 (0.40) log10 PFUe/mL | Time to <1 log10 viral load (RT-qPCR), median (Q1, Q3) ([1]; 350 mg, ITT-A): 3.5 (3.0, 4.0) days | Time to peak viral load (RT-qPCR), mean (SE) ([1]; 350 mg, ITT-A): 1.65 (0.39) days | AUC of viral load (RT-qPCR), mean (SE) [1, 5]: 207.56 (28.74) log10 PFUe/mL x hours | AUC of viral load (RT-qPCR), reduction in mean vs placebo [1, 5]: –302.95 log10 PFUe/mL x hours | AUC of viral load (RT-qPCR), mean (SE) ([1]; 350 mg, ITT-I): 185.26 log10 PFUe/ml · h and 185.26 (31.17) log10 PFUe/ml · h | AUC of viral load (RT-qPCR), reduction in mean vs that of placebo ([1]; 350 mg, ITT-I): 63.05% | AUC of viral load (RT-qPCR, unlogged), mean (SE) ([1]; 350 mg, ITT-I): 1,356,521.31 (1,117,131.13) PFUe/ml · h | AUC of viral load (RT-qPCR, unlogged), reduction in mean vs that of placebo ([1]; 350 mg, ITT-I): 98.87% | Peak viral load (RT-qPCR), mean (SE) ([1]; 350 mg, ITT-I): 3.17 log10 PFUe/ml and 3.17 (0.45) log10 PFUe/ml | Time to <1 log10 viral load (RT-qPCR), median (Q1, Q3) ([1]; 350 mg, ITT-I): 3.5 days and 3.5 (3.0, 4.0) (n = 13) days | Time to peak viral load (RT-qPCR), mean (SE) ([1]; 350 mg, ITT-I): 1.63 days and 1.63 (0.34) days | Mean viral load at time of peak viral load in placebo arm (day 3; RT-qPCR), mean (SE) ([1]; 350 mg, ITT-I): 0.80 (1.07) log10 PFUe/ml | AUC of viral load (RT-qPCR), fixed time period of 6.5 days, mean (SE) ([1]; 350 mg, ITT-I): 182.59 (30.29) log10 PFUe/ml · h | AUC of viral load (RT-qPCR), fixed time period of 6.5 days, reduction in mean vs placebo ([1]; 350 mg, ITT-I): 58.12% | pIC50 [2]: 9.00 | Tolerability [3]: well tolerated

— article PMC6985722 (Antimicrobial Agents and Chemotherapy, 2020)
